Laboratory results: paper PMC6234866, “High-Affinity Chemotaxis to Histamine Mediated by the TlpQ Chemoreceptor of the Human Pathogen Pseudomonas aeruginosa” (mBio, 2018)
Read-outs that look alike come from different tables or passages of the source.

Columns and labels:
McpU-LBD [1] = target: T1, McpU-LBD (Pseudomonas putida, UniProt Q88NI1); assay: Thermal shift assay of McpU-LBD; assay type: binding, Pseudomonas putida KT2440; settings: 10 µM McpU-LBD, Biolog plate PM3B; Tm without ligand 46.5°C
Description: Thermal shift experiments were conducted as reported in reference in [57]. McpU-LBD in polybuffer {5 mM Tris, 5 mM PIPES [piperazine-N,N′-bis(2-ethanesulfonic acid)], 5 mM MES [morpholineethanesulfonic acid], 10% glycerol [vol/vol], 150 mM NaCl, pH 7.0} was used at a final concentration of 10 µM. Biolog (Hayward, CA, USA) compound arrays PM3B (nitrogen sources), PM4A (phosphorous and sulfur sources), and PM5 (nutrient supplements) were used for screening. The compositions of these arrays are provided at http://208.106.130.253/pdf/pm_lit/PM1-PM10.pdf.

TlpQ-LBD [2] = assay: biochemical; assay type: binding, Pseudomonas aeruginosa PAO1; settings: ratio of ITC KD values
TlpQ-LBD [3] = target: TlpQ-LBD (Pseudomonas aeruginosa, UniProt Q9I0I4); assay: biochemical; assay type: binding, Pseudomonas aeruginosa PAO1
McpU-LBD [4] = target: T1, McpU-LBD; assay: ITC binding of ligands to McpU-LBD; set-up: species or system Pseudomonas putida KT2440; settings: for ΔH McpU-LBD / Kd: 25°C; for Kd: polybuffer pH 7.0
McpU-LBD [5] = target: T1, McpU-LBD; settings: read-out: KD McpU-LBD; ITC; reported previously; cited from earlier work
PAO1 = assay: Growth with ligand as sole carbon or nitrogen source, PAO1; settings: PAO1, minimal medium, 5 mM ligand
KT2440 = assay: Growth with ligand as sole carbon or nitrogen source, KT2440; settings: KT2440, minimal medium, 5 mM ligand
[6] = system: Ralstonia pseudosolanacearum Ps29; settings: Ps29, minimal medium, 5 mM
P. aeruginosa PAO1 = settings: PAO1, capillary assay
Description: (§1) Two protocols were used that differed in the ways the cells were counted. The first protocol was used to generate the data shown Fig. S6, whereas the second protocol was used for the remaining chemotaxis experiments. In the first protocol, overnight cultures of strains were diluted to an OD660 of 0.05 in MS medium ([58]) supplemented with 6 mg·liter^−1 Fe citrate, trace elements, and 15 mM glucose and grown at 37°C. At an OD660 of 0.4, the cultures were centrifuged at 1,700 × g for 5 min and the pellet was washed twice with chemotaxis buffer (50 mM potassium phosphate, […], 0.05% [vol/vol] glycerol, pH 7.0). The cells were resuspended in this buffer and adjusted to an OD660 of 0.1, and 230-µl aliquots were placed into 96-well plates. Capillary tubes (P1424, Microcaps; Drummond Scientific) were heat sealed at one end and filled with chemotaxis buffer or chemotaxis chemoattractant solution. The capillaries were then immersed in bacterial suspensions at their open ends. After 30 min at room temperature, the capillaries were removed and rinsed with sterile water, and the content was expelled into 1 ml of M9 medium. Serial dilutions were plated on LB medium, and the CFU were determined. In all cases, the data were corrected to the number of cells that swam into the buffer-containing capillaries. In the second protocol, we used computer-assisted image analysis as reported previously ([59]). Briefly, capillaries were filled with chemoattractant solutions in 10 mM HEPES buffer (pH 7.0) containing 1% (wt/vol) agarose and heat sealed on one side. The cells were grown in 2× yeast extract-tryptone (YT), medium and 10-μl aliquots of the cell suspension were placed onto a microscope slide within the U-shaped spacer, which was then covered by a coverslip. The chemoattractant-filled capillaries were introduced into the chemotaxis chamber, and cell movement was videotaped, with images taken at the beginning and at different time intervals. If not otherwise stated, the contact time between the cell and the chemoattractant was 2 min. The Bioinformatics Assistant Icy Sport detector software ([60]) was used to determine the number of cells per image. The magnitude of chemotaxis was expressed as the number of cells after a given time over the number of cells at the beginning of the experiment. The data shown are the means and standard deviations from three experiments conducted in triplicates.

[7] = system: P. aeruginosa PA14 mutant defective in pctA, pctC and tlpQ; settings: deletion of pctA, tlpQ homologues
Description: as §1

[8] = system: P. aeruginosa PAO1 mutant strains
Description: as §1

[9] = system: P. aeruginosa strains 233, 401 and PA14; settings: 5 mM histamine; all analyzed P. aeruginosa strains
Description: as §1

PctA-LBD = PctA-LBD (Pseudomonas aeruginosa, UniProt G3XD24); settings: for binding to PctA-LBD (in words): direct microcalorimetric titration
PctC-LBD = PctC-LBD (Pseudomonas aeruginosa, UniProt Q9HW93); assay: Microcalorimetric binding studies with PctC-LBD; set-up: species or system Pseudomonas aeruginosa PAO1; settings: direct microcalorimetric titration
[10] = system: Ralstonia pseudosolanacearum Ps29; settings: 5 mM histamine, strain Ps29

T1 sequence (Q88NI1 50-284): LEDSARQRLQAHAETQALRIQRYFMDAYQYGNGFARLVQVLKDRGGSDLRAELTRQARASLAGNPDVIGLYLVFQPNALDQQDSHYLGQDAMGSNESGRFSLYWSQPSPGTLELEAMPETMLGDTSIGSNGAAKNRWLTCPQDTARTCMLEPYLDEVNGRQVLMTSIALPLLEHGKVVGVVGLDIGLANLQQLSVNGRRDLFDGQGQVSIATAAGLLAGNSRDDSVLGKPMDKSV
Chain of TlpQ-LBD (Pseudomonas aeruginosa, UniProt Q9I0I4) (Q9I0I4 33-359): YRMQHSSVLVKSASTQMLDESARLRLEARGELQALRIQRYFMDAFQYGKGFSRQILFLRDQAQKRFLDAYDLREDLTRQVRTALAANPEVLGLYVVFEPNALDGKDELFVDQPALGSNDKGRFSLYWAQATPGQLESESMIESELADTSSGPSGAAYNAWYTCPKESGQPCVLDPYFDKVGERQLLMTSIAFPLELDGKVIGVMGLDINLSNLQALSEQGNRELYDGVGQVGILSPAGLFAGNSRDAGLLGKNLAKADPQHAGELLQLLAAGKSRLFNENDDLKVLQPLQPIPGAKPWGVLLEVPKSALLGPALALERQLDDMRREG
Chain of PctA-LBD (G3XD24 32-276): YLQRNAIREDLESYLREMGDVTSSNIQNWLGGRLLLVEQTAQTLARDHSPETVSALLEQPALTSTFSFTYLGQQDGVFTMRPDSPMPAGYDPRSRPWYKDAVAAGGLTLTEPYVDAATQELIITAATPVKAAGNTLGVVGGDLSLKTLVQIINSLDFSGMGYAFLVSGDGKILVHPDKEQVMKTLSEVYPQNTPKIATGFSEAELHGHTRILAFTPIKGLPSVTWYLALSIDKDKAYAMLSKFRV
Chain of PctC-LBD (Q9HW93 32-279): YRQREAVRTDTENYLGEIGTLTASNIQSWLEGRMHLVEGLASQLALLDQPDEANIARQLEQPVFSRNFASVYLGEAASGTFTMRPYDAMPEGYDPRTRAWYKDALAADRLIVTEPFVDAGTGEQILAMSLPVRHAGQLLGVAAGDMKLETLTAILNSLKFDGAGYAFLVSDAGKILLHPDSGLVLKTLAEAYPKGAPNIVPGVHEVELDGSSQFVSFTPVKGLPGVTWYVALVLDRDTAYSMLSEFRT

With `NCCCCN=C(N)N` [Agmatine] the “Tm increase of McpU-LBD” value (McpU-LBD [1]) was “greater than 2 °C”, the “KD McpU-LBD/KD TlpQ-LBD” value (TlpQ-LBD [2]) was 3 and the Kd (TlpQ-LBD [3]) was 150 ± 9 nM. For the same compound, the “ΔH TlpQ-LBD” value (TlpQ-LBD [3]; ITC, 25°C) was -5.4 ± 0.1 kcal/mol, the “binding to McpU-LBD (in words)” value (McpU-LBD [4]) was “Very tight binding” and the “ΔH McpU-LBD” value (McpU-LBD [4]) was -14.5 ± 0.2 kcal/mol. For the same compound, the Kd (McpU-LBD [4]) was 480 ± 20 nM.

In the case of `NCCCCCN` [Cadaverine], the Kd (McpU-LBD [5]) is given as 22000 ± 2000 nM, the “KD McpU-LBD/KD TlpQ-LBD” value (TlpQ-LBD [2]) is given as 147 and the Kd (TlpQ-LBD [3]) is given as 150 ± 4 nM. For the same compound, the “ΔH TlpQ-LBD” value (TlpQ-LBD [3]; ITC, 25°C) was -6.0 ± 0.1 kcal/mol and the “ΔH McpU-LBD” value (McpU-LBD [4]) was -15.5 ± 0.5 kcal/mol.

In the case of `NCCN` [Ethylenediamine], the “growth as sole carbon or nitrogen source” value (PAO1) is reported as “either not or were poor growth substrates”, the “Tm increase of McpU-LBD” value (McpU-LBD [1]) is reported as “greater than 2 °C” and the “KD McpU-LBD/KD TlpQ-LBD” value (TlpQ-LBD [2]) is reported as 23. For the same compound, the “binding to TlpQ-LBD (in words)” value (TlpQ-LBD [3]; ITC) was “slightly weaker”, the “ΔH TlpQ-LBD” value (TlpQ-LBD [3]; ITC, 25°C) was -6.3 ± 0.6 kcal/mol and the Kd (TlpQ-LBD [3]; ITC, 25°C, polybuffer pH 7.0, read-out: KD TlpQ-LBD) was 1710 nM. The “growth as sole carbon or nitrogen source” value (KT2440) was “either not or were poor growth substrates”, the “binding to McpU-LBD (in words)” value (McpU-LBD [4]) was “much lower affinities” and the “ΔH McpU-LBD” value (McpU-LBD [4]) was -9.7 ± 0.5 kcal/mol. For the same compound, the Kd (McpU-LBD [4]) was 39000 ± 4000 nM.

With `NCCc1c[nH]cn1` [Histamine] the “concentration at onset of chemotactic response” value (P. putida KT2440; KT2440, capillary assay) was 5 µM, the “chemotaxis (in words)” value (P. putida KT2440; KT2440, histamine dose response) was “only moderate chemotaxis” and the “growth as sole carbon and nitrogen source” value [6] was “no significant growth”. The “concentration at onset of chemotactic response” value (P. aeruginosa PAO1) was 500 nM, the “chemotaxis (in words)” value (P. aeruginosa PAO1; 2 min) was “much stronger” and the “chemotaxis of PA14 triple mutant” value [7] was “abolished histamine chemotaxis”. For the same compound, the “chemotaxis of PCT2Q complemented with pctA, pctC or tlpQ” value ([8]; 500 µM histamine, 2.5 min) was “significant chemotaxis”, the “chemotaxis of PCT2Q complemented with pctC or tlpQ in trans” value ([8]; 500 µM histamine, exposure time 1 min) was “recovered histamine chemotaxis” and the “chemotaxis of strain PCT2 (pctA, pctB, pctC deleted)” value ([8]; 5 mM histamine) was “abolished chemotaxis”. The “concentration range of significant chemotaxis of PCT2 mutant” value ([8]; dose response) was 0.5 µM and 500 µM, the “chemotaxis of PCT2Q mutant (pctABC and tlpQ deleted)” value ([8]; entire concentration range 50 nM to 50 mM) was “devoid of histamine chemotaxis” and the “chemotaxis (in words)” value [9] was “significant chemotaxis”. For the same compound, the “growth as sole carbon or nitrogen source” value (PAO1) was “permitted the growth”, the “Tm increase of McpU-LBD” value (McpU-LBD [1]) was “greater than 2 °C” and the “binding to PctA-LBD, competition assay (in words)” value (PctA-LBD; PctA-LBD titrated with L-Ala with and without 20 mM histamine) was “does not bind directly”. For the same compound, the “binding to PctA-LBD (in words)” value (PctA-LBD) was “did not bind”, the “binding to PctC-LBD (in words)” value (PctC-LBD) was “did not bind” and the “KD McpU-LBD/KD TlpQ-LBD” value (TlpQ-LBD [2]) was 41. For the same compound, the Kd (TlpQ-LBD [3]) was 639 ± 27 nM, the “ΔH TlpQ-LBD” value (TlpQ-LBD [3]; ITC, 25°C) was -9.1 ± 0.3 kcal/mol and the “growth as sole carbon or nitrogen source” value (KT2440) was “permitted the growth”. The “chemotaxis (in words)” value [10] was “not attracted”, the “binding to McpU-LBD (in words)” value (McpU-LBD [4]) was “much lower affinities” and the “ΔH McpU-LBD” value (McpU-LBD [4]) was -2.6 ± 0.3 kcal/mol. It also gave a Kd (McpU-LBD [4]) of 26000 ± 2000 nM.

In the case of `C[C@H](N)C(=O)O` [L-Ala, L-alanine, reference compound], the “binding to PctA-LBD (in words)” value (PctA-LBD) is reported as “bound”.

In the case of `NC(=O)CC[C@H](N)C(=O)O` [L-Gln, reference compound], the “binding to PctC-LBD (in words)” value (PctC-LBD) is reported as “bound”.

For `NCCCCN` [Putrescine], the Kd (McpU-LBD [5]) is given as 2000 ± 100 nM, the “KD McpU-LBD/KD TlpQ-LBD” value (TlpQ-LBD [2]) is given as 15 and the Kd (TlpQ-LBD [3]) is given as 134 ± 12 nM. For the same compound, the “ΔH TlpQ-LBD” value (TlpQ-LBD [3]; ITC, 25°C) was -6.8 ± 0.3 kcal/mol and the “ΔH McpU-LBD” value (McpU-LBD [4]) was -15 ± 0.5 kcal/mol.

In the case of `NCCCCNCCCN` [Spermidine], the “growth as sole carbon or nitrogen source” value (PAO1) is given as “either not or were poor growth substrates”, the Kd (McpU-LBD [5]) is given as 4500 ± 400 nM and the “KD McpU-LBD/KD TlpQ-LBD” value (TlpQ-LBD [2]) is given as 80. For the same compound, the Kd (TlpQ-LBD [3]) was 56 ± 4 nM, the “ΔH TlpQ-LBD” value (TlpQ-LBD [3]; ITC, 25°C) was -4.6 ± 0.4 kcal/mol and the “growth as sole carbon or nitrogen source” value (KT2440) was “either not or were poor growth substrates”. For the same compound, the “ΔH McpU-LBD” value (McpU-LBD [4]) was -4.3 ± 0.3 kcal/mol.

With `C=C` [ethylene] the “binding to TlpQ-LBD (in words)” value (TlpQ-LBD [3]; ITC) was “did not show any binding”.
